Numbers after ± are expanded uncertainties.
Details: Liquid, Closed cell (Static) method

O=C=O [carbon dioxide]
Details | vapor or sublimation pressure [kPa]
218.15 K | 552.5 ± 18
233.15 K | 1004.4 ± 18
243.15 K | 1428 ± 18
258.15 K | 2293.7 ± 18
273.15 K | 3484.6 ± 19
288.19 K | 5089.6 ± 19
302.94 K | 7171.2 ± 21
